# Laboratory results: US20240025856A1, “1,2,3,4-TETRAHYDROQUINOLINE DERIVATIVES AS INHIBITORS OF THE YAP/TAZ-TEAD ACTIVATION FOR TREATING CANCER” (KATHOLIEKE UNIVERSITEIT LEUVEN, priority 2020, published 2024)
# System: YAP/TAZ-TEAD transcription
# Test: Reporter gene assay for measuring the inhibition of YAP/TAZ-TEAD transcription (TEAD-responsive element luciferase reporter in Hek293T cells)
# Type: cell-based
# Conditions: Homo sapiens, HEK-293T, 24 h, Hek293T cells transiently transfected with TEAD-responsive element luciferase reporter; 24 hours incubation
# Protocol: Hek293T cells are cultured in DMEM supplemented with 10% fetal bovine serum, Sodium pyruvate, Sodium bicarbonate, L-glutamine. The cells are harvested and transiently transfected with TEAD-responsive element luciferase reporter. Transfected cells are plated in 384-wells plate containing pre-diluted compounds. After 24 hours incubation at 37° C./5% CO2, assay plates were cooled down to RT and levelled to an equal volume per well, prior to the addition of 25 uL luciferase substrate SteadyLite (Perkin Elmer)/well. The plate was shaken for 10 min at 600 rpm, centrifuged for 1 min at 500 rpm and measured with an Envision reader (PerkinElmer). The amount of relative light units produced by the TEAD reporter is used to calculated percent of inhibition. The percent of reporter inhibition was calculated in the presence of a positive control inhibitor (100% inhibition) versus a condition with the presence of the vehicle basal activity of the reporter (0% inhibition). The ability of a test compound to inhibit this activity was determined as: Percentage inhibition=[[…]((RLU determined in the presence of vehicle−RLU determined for sample with test compound present) divided by (RLU determined in the presence of vehicle−RLU determined for sample with positive control inhibitor))]*100
# The activities of example compounds tested are depicted in the table below. The activity ranges A, B and C refer to IC50 values in the reporter gene assay as follows: “A”: IC50<1 μM; “B”: 1 μM≤IC50≤20 μM and “C”: IC50>20 μM; NT=not tested.
row,Compound,IC50
1,"CC(C)(C)OC(=O)NC1Cc2c(Br)cccc2N(c2ccc(C(F)(F)F)cc2)C1 (stereo not shown) [compound 055, tert-butyl (5-bromo-1-(4-(trifluoromethyl)phenyl)-1,2,3,4-tetrahydroquinolin-3-yl)carbamate]",> 20 µM
2,"CCC(=O)NC1Cc2c(Cc3cccnc3)cccc2N(c2ccc(C(F)(F)F)cc2)C1 (stereo not shown) [compound 061, N-(5-(pyridin-3-ylmethyl)-1-(4-(trifluoromethyl)phenyl)-1,2,3,4-tetrahydroquinolin-3-yl)propionamide]",1 to 20 µM
3,"C=CC(=O)NC1Cc2c(Cc3cccc(C#N)c3)cccc2N(c2ccc(C(F)(F)F)cc2)C1 (stereo not shown) [compound 062, N-(5-(3-cyanobenzyl)-1-(4-(trifluoromethyl)phenyl)-1,2,3,4-tetrahydroquinolin-3-yl)acrylamide]",< 1 µM
4,"C=CC(=O)NC1Cc2c(Cc3cccc(F)c3)cccc2N(c2ccc(C(F)(F)F)cc2)C1 (stereo not shown) [compound 063, N-(5-(3-fluorobenzyl)-1-(4-(trifluoromethyl)phenyl)-1,2,3,4-tetrahydroquinolin-3-yl)acrylamide]",< 1 µM
5,"C=CC(=O)NC1Cc2c(Cc3ccccc3)cccc2N(c2ccc(C(F)(F)F)cc2)C1 (stereo not shown) [compound 066, N-(5-benzyl-1-(4-(trifluoromethyl)phenyl)-1,2,3,4-tetrahydroquinolin-3-yl)acrylamide]",< 1 µM
6,"C=CC(=O)NC1Cc2c(CN3CCOCC3)cccc2N(c2ccc(C(F)(F)F)cc2)C1 (stereo not shown) [compound 068, N-(5-(morpholinomethyl)-1-(4-(trifluoromethyl)phenyl)-1,2,3,4-tetrahydroquinolin-3-yl)acrylamide]",< 1 µM
7,"C=CC(=O)NC1Cc2c(Nc3ccccc3)cccc2N(c2ccc(C(F)(F)F)cc2)C1 (stereo not shown) [compound 069, N-(5-(phenylamino)-1-(4-(trifluoromethyl)phenyl)-1,2,3,4-tetrahydroquinolin-3-yl)acrylamide]",< 1 µM
8,"C=CC(=O)NC1Cc2c(Nc3cccnc3)cccc2N(c2ccc(C(F)(F)F)cc2)C1 (stereo not shown) [compound 070, N-(5-(pyridin-3-ylamino)-1-(4-(trifluoromethyl)phenyl)-1,2,3,4-tetrahydroquinolin-3-yl)acrylamide]",< 1 µM
9,"CCC(=O)NC1Cc2c(Nc3cccnc3)cccc2N(c2ccc(C(F)(F)F)cc2)C1 (stereo not shown) [compound 072, N-(5-(pyridin-3-ylamino)-1-(4-(trifluoromethyl)phenyl)-1,2,3,4-tetrahydroquinolin-3-yl)propionamide]",1 to 20 µM
10,"C=CC(=O)NC1Cc2c(NC(=O)OC(C)(C)C)cccc2N(c2ccc(C(F)(F)F)cc2)C1 (stereo not shown) [compound 074, tert-butyl (3-acrylamido-1-(4-(trifluoromethyl)phenyl)-1,2,3,4-tetrahydroquinolin-5-yl)carbamate]",< 1 µM
11,"C=CC(=O)NC1Cc2c(C(=O)O)cccc2N(c2ccc(C(F)(F)F)cc2)C1 (stereo not shown) [compound 079, 3-acrylamido-1-(4-(trifluoromethyl)phenyl)-1,2,3,4-tetrahydroquinoline-5-carboxylic acid]",< 1 µM
12,"C=CC(=O)NCC1Cc2ccccc2N(c2ccccc2)C1 (stereo not shown) [compound 085, N-((1-phenyl-1,2,3,4-tetrahydroquinolin-3-yl)methyl)acrylamide]",< 1 µM
13,"C=CC(=O)NCC1Cc2ccccc2N(c2cccc(C(F)(F)F)c2)C1 (stereo not shown) [compound 086, N-((1-(3-(trifluoromethyl)phenyl)-1,2,3,4-tetrahydroquinolin-3-yl)methyl)acrylamide]",< 1 µM
14,"C=CC(=O)NCC1Cc2ccccc2N(c2ccc(C(C)C)cc2)C1 (stereo not shown) [compound 087, N-((1-(4-isopropylphenyl)-1,2,3,4-tetrahydroquinolin-3-yl)methyl)acrylamide]",< 1 µM
15,"C=CC(=O)NCC1Cc2ccccc2N(c2cccc(C(C)C)c2)C1 (stereo not shown) [compound 088, N-((1-(3-isopropylphenyl)-1,2,3,4-tetrahydroquinolin-3-yl)methyl)acrylamide]",< 1 µM
16,"C=CC(=O)NCC1Cc2ccccc2N(c2ccc(Cl)cc2)C1 (stereo not shown) [compound 089, N-((1-(4-chlorophenyl)-1,2,3,4-tetrahydroquinolin-3-yl)methyl)acrylamide]",< 1 µM
17,"C=CC(=O)NCC1Cc2ccccc2N(c2cccc(OC)c2)C1 (stereo not shown) [compound 090, N-((1-(3-methoxyphenyl)-1,2,3,4-tetrahydroquinolin-3-yl)methyl)acrylamide]",< 1 µM
18,"C=CC(=O)NCC1Cc2ccccc2N(c2ccc(OC)cc2)C1 (stereo not shown) [compound 091, N-((1-(4-methoxyphenyl)-1,2,3,4-tetrahydroquinolin-3-yl)methyl)acrylamide]",< 1 µM

# The remaining lines, values ahead:
row,IC50,Compound
1,1 to 20 µM,"N#CC1CN(C2Cc3ccccc3N(c3ccc(C(F)(F)F)cc3)C2)C1=O (stereo not shown) [compound 042, 2-oxo-1-(1-(4-(trifluoromethyl)phenyl)-1,2,3,4-tetrahydroquinolin-3-yl)azetidine-3-carbonitrile]"
2,< 1 µM,"OCCNC1Cc2ccccc2N(c2ccc(C(F)(F)F)cc2)C1 (stereo not shown) [compound 043, 2-((1-(4-(trifluoromethyl)phenyl)-1,2,3,4-tetrahydroquinolin-3-yl)amino)ethan-1-ol]"
3,> 20 µM,"O=C(O)CNC1Cc2ccccc2N(c2ccc(C(F)(F)F)cc2)C1 (stereo not shown) [compound 044, (1-(4-(trifluoromethyl)phenyl)-1,2,3,4-tetrahydroquinolin-3-yl)glycine]"
4,1 to 20 µM,"OCCCNC1Cc2ccccc2N(c2ccc(C(F)(F)F)cc2)C1 (stereo not shown) [compound 045, 3-((1-(4-(trifluoromethyl)phenyl)-1,2,3,4-tetrahydroquinolin-3-yl)amino)propan-1-ol]"
5,< 1 µM,"O=C(O)CCNC1Cc2ccccc2N(c2ccc(C(F)(F)F)cc2)C1 (stereo not shown) [compound 046, 3-((1-(4-(trifluoromethyl)phenyl)-1,2,3,4-tetrahydroquinolin-3-yl)amino)propanoic acid]"
6,< 1 µM,"CS(=O)(=O)NC1Cc2ccccc2N(c2ccc(C(F)(F)F)cc2)C1 (stereo not shown) [compound 047, N-(1-(4-(trifluoromethyl)phenyl)-1,2,3,4-tetrahydroquinolin-3-yl)methanesulfonamide]"
7,< 1 µM,"C=CS(=O)(=O)NC1Cc2ccccc2N(c2ccc(C(F)(F)F)cc2)C1 (stereo not shown) [compound 048, N-(1-(4-(trifluoromethyl)phenyl)-1,2,3,4-tetrahydroquinolin-3-yl)ethenesulfonamide]"
8,1 to 20 µM,"CS(=O)(=O)CCNC1Cc2ccccc2N(c2ccc(C(F)(F)F)cc2)C1 (stereo not shown) [compound 049, N-(2-(methylsulfonyl)ethyl)-1-(4-(trifluoromethyl)phenyl)-1,2,3,4-tetrahydroquinolin-3-amine]"
9,1 to 20 µM,"O=S1(=O)CCN1C1Cc2ccccc2N(c2ccc(C(F)(F)F)cc2)C1 (stereo not shown) [compound 050, 2-(1-(4-(trifluoromethyl)phenyl)-1,2,3,4-tetrahydroquinolin-3-yl)-1,2-thiazetidine-1,1-dioxide]"
10,1 to 20 µM,"CNS(=O)(=O)CCNC1Cc2ccccc2N(c2ccc(C(F)(F)F)cc2)C1 (stereo not shown) [compound 051, N-methyl-2-((1-(4-(trifluoromethyl)phenyl)-1,2,3,4-tetrahydroquinolin-3-yl)amino)ethane-1-sulfonamide]"
11,1 to 20 µM,"N#CCC(=O)NC1Cc2ccccc2N(c2ccc(C(F)(F)F)cc2)C1 (stereo not shown) [compound 052, 2-cyano-N-(1-(4-(trifluoromethyl)phenyl)-1,2,3,4-tetrahydroquinolin-3-yl)acetamide]"
12,1 to 20 µM,"N#CCCNC1Cc2ccccc2N(c2ccc(C(F)(F)F)cc2)C1 (stereo not shown) [compound 053, 3-((1-(4-(trifluoromethyl)phenyl)-1,2,3,4-tetrahydroquinolin-3-yl)amino)propanenitrile]"
13,1 to 20 µM,"N#CCNC1Cc2ccccc2N(c2ccc(C(F)(F)F)cc2)C1 (stereo not shown) [compound 054, 2-((1-(4-(trifluoromethyl)phenyl)-1,2,3,4-tetrahydroquinolin-3-yl)amino)acetonitrile]"
14,< 1 µM,"C=CC(=O)NC1Cc2c(Br)cccc2N(c2ccc(C(F)(F)F)cc2)C1 (stereo not shown) [compound 058, N-(5-bromo-1-(4-(trifluoromethyl)phenyl)-1,2,3,4-tetrahydroquinolin-3-yl)acrylamide]"
15,< 1 µM,"C=CC(=O)NC1Cc2cc(C)ccc2N(c2ccc(C(F)(F)F)cc2)C1 (stereo not shown) [compound 065, N-(6-methyl-1-(4-(trifluoromethyl)phenyl)-1,2,3,4-tetrahydroquinolin-3-yl)acrylamide]"
16,1 to 20 µM,"CCC(=O)NC1Cc2c(Cc3ccccc3)cccc2N(c2ccc(C(F)(F)F)cc2)C1 (stereo not shown) [compound 067, N-(5-benzyl-1-(4-(trifluoromethyl)phenyl)-1,2,3,4-tetrahydroquinolin-3-yl)propionamide]"
17,1 to 20 µM,"CCC(=O)NC1Cc2c(Nc3ccccc3)cccc2N(c2ccc(C(F)(F)F)cc2)C1 (stereo not shown) [compound 071, N-(5-(phenylamino)-1-(4-(trifluoromethyl)phenyl)-1,2,3,4-tetrahydroquinolin-3-yl)propionamide]"
18,< 1 µM,"C=CC(=O)NC1Cc2c(NC(C)=O)cccc2N(c2ccc(C(F)(F)F)cc2)C1 (stereo not shown) [compound 076, N-(5-acetamido-1-(4-(trifluoromethyl)phenyl)-1,2,3,4-tetrahydroquinolin-3-yl)acrylamide]"
19,1 to 20 µM,"C=CC(=O)NC1Cc2cnccc2N(c2ccc(C(F)(F)F)cc2)C1 (stereo not shown) [compound 082, N-(1-(4-(trifluoromethyl)phenyl)-1,2,3,4-tetrahydro-1,6-naphthyridin-3-yl)acrylamide]"
